Results reported in US9199962B2, “Substituted azaheterocycles for the treatment of cancer” (Merck Patent GmbH, priority 2011, dated 2015).

Biological target: T1, GST-FAK (N-terminal GST fusion with truncated human FAK (376-1052 (end) amino acids)) (Homo sapiens, UniProt Q05397)
T1 construct: truncated human FAK (376-1052 (end) amino acids)
Assay: Biochemical enzyme assay for FAK activity (Caliper LC3000 mobility shift)
Details: Table 5; 100 uM ATP; read-out: FAK IC50
Procedure, shortened: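 Inhibitor dose series in DMSO were incubated 90 min at 25 °C with truncated GST-tagged human FAK (0.067 ng/µl) and FITC-labelled peptide substrate (1 µM), with ATP at 100 µM and FERM peptide at 1 mM (pH 7.5 HEPES). After EDTA quench, phosphorylated and unphosphorylated peptides were resolved electrophoretically. Percent conversion was fitted for IC50.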

T1 sequence (Q05397 376-1052): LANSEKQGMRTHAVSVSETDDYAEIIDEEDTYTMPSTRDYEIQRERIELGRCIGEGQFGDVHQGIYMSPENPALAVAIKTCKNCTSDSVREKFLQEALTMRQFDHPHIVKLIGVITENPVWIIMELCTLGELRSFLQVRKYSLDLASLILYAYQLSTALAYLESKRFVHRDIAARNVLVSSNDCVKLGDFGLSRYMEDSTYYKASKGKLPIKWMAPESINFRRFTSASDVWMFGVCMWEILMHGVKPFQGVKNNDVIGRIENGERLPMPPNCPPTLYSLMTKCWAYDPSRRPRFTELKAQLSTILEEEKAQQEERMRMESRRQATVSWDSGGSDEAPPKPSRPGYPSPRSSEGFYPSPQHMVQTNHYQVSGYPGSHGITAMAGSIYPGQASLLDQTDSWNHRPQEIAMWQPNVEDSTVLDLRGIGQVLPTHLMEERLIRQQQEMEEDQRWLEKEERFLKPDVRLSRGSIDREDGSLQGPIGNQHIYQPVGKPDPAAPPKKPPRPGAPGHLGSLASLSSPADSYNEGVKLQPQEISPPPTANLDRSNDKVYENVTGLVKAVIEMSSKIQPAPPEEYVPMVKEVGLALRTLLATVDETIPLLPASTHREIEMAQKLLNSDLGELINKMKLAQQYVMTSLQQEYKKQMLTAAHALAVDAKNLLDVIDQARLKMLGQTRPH

Structure (SMILES) | IC50 [nM]
COc1cncc(-c2nccc(NCc3ccccc3-c3ccccc3S(C)(=O)=O)n2)c1 [Compound 193, (2′-Methanesulfonyl-biphenyl-2-ylmethyl)-[2-(5-methoxy-pyridin-3-yl)-pyrimidin-4-yl]-amine] | > 10000
COc1cncc(-c2nccc(NCCc3cccc(C(F)(F)F)c3)n2)c1 [Compound 194, [2-(5-Methoxy-pyridin-3-yl)-pyrimidin-4-yl]-[2-(3-trifluoromethyl-phenyl)-ethyl]-amine] | > 10000
CN1CCCC1CCNc1ccnc(-c2cncc(C(F)(F)F)c2)n1 (stereo not shown) [Compound 197, [2-(1-Methyl-pyrrolidin-2-yl)-ethyl]-[2-(5-trifluoromethyl-pyridin-3-yl)-pyrimidin-4-yl]-amine] | > 10000
O=C1CCCN1CCNc1ccnc(-c2cncc(C(F)(F)F)c2)n1 [Compound 200, 1-{2-[2-(5-Trifluoromethyl-pyridin-3-yl)-pyrimidin-4-ylamino]-ethyl}-pyrrolidin-2-one] | > 10000
Fc1ccccc1CNc1ccnc(-c2cccnc2F)n1 [Compound 205, (2-Fluoro-benzyl)-[2-(2-fluoro-pyridin-3-yl)-pyrimidin-4-yl]-amine] | 1000 to 10000
Fc1ccc(-c2nccc(NCc3ccccc3F)n2)cn1 [Compound 207, (2-Fluoro-benzyl)-[2-(6-fluoro-pyridin-3-yl)-pyrimidin-4-yl]-amine] | > 10000
Fc1cccnc1CNc1ccnc(-c2cncc(C(F)(F)F)c2)n1 [Compound 208, (3-Fluoro-pyridin-2-ylmethyl)-[2-(5-trifluoromethyl-pyridin-3-yl)-pyrimidin-4-yl]-amine] | 100 to 1000
Fc1cnc(CNc2ccnc(-c3cncc(C(F)(F)F)c3)n2)c(F)c1 [Compound 209, (3,5-Difluoro-pyridin-2-ylmethyl)-[2-(5-trifluoromethyl-pyridin-3-yl)-pyrimidin-4-yl]-amine] | < 100
Fc1ccc(CNc2ccnc(-c3cccnc3F)n2)c(F)c1 [Compound 212, (2,4-Difluoro-benzyl)-[2-(2-fluoro-pyridin-3-yl)-pyrimidin-4-yl]-amine] | 1000 to 10000
COc1cncc(-c2nccc(NCc3ccc4[nH]c(=O)[nH]c4c3)n2)c1 [Compound 216, 5-{[2-(5-Methoxy-pyridin-3-yl)-pyrimidin-4-ylamino]-methyl}-1,3-dihydro-benzoimidazol-2-one] | > 10000
Fc1ccc(CNc2ccnc(-c3ccc(F)nc3)n2)c(F)c1 [Compound 217, (2,4-Difluoro-benzyl)-[2-(6-fluoro-pyridin-3-yl)-pyrimidin-4-yl]-amine] | > 10000
FC(F)(F)c1cncc(-c2nccc(NCc3ccccn3)n2)c1 [Compound 219, Pyridin-2-ylmethyl-[2-(5-trifluoromethyl-pyridin-3-yl)-pyrimidin-4-yl]-amine] | 100 to 1000
COc1cncc(-c2nccc(NCc3csc(-c4ccccc4)n3)n2)c1 [Compound 221, [2-(5-Methoxy-pyridin-3-yl)-pyrimidin-4-yl]-(2-phenyl-thiazol-4-ylmethyl)-amine] | > 10000
COc1cncc(-c2nccc(NCc3ccc(F)cc3F)n2)c1 [Compound 223, (2,4-Difluoro-benzyl)-[2-(5-methoxy-pyridin-3-yl)-pyrimidin-4-yl]-amine] | < 100
COc1cncc(-c2nccc(NCc3cc(F)c(F)cc3F)n2)c1 [Compound 224, [2-(5-Methoxy-pyridin-3-yl)-pyrimidin-4-yl]-(2,4,5-trifluoro-benzyl)-amine] | 100 to 1000
COc1cncc(-c2nccc(NCc3ccccn3)n2)c1 [Compound 228, [2-(5-Methoxy-pyridin-3-yl)-pyrimidin-4-yl]-pyridin-2-ylmethyl-amine] | 100 to 1000
COc1cc(NC(=O)c2cc(NCc3ccc(F)cc3F)nc(-c3cncc(C(F)(F)F)c3)n2)ccn1 [Compound 232, 6-(2,4-Difluoro-benzylamino)-2-(5-trifluoromethyl-pyridin-3-yl)-pyrimidine-4-carboxylic acid (2-methoxy-pyridin-4-yl)-amide] | 1000 to 10000
O=C1c2ccccc2CN1c1ccnc(-c2cncc(C(F)(F)F)c2)n1 [Compound 235, 2-[2-(5-Trifluoromethyl-pyridin-3-yl)-pyrimidin-4-yl]-2,3-dihydro-isoindol-1-one] | > 10000

Next, values leading:

IC50 [nM] | Structure (SMILES)
100 to 1000 | Fc1ccc(CCNc2ccnc(-c3cncc(C(F)(F)F)c3)n2)cc1 [Compound 195, [2-(4-Fluoro-phenyl)-ethyl]-[2-(5-trifluoromethyl-pyridin-3-yl)-pyrimidin-4-yl]-amine]
1000 to 10000 | CS(=O)(=O)c1ccccc1-c1ccccc1CNc1ccnc(-c2cncc(C(F)(F)F)c2)n1 [Compound 196, (2′-Methanesulfonyl-biphenyl-2-ylmethyl)-[2-(5-trifluoromethyl-pyridin-3-yl)-pyrimidin-4-yl]-amine]
1000 to 10000 | FC(F)(F)c1cncc(-c2nccc(NCCc3ccccc3Cl)n2)c1 [Compound 198, [2-(2-Chloro-phenyl)-ethyl]-[2-(5-trifluoromethyl-pyridin-3-yl)-pyrimidin-4-yl]-amine]
> 10000 | COc1cncc(-c2nccc(NCCN3CCCC3=O)n2)c1 [Compound 199, 1-{2-[2-(5-Methoxy-pyridin-3-yl)-pyrimidin-4-ylamino]-ethyl}-pyrrolidin-2-one]
1000 to 10000 | COc1ccccc1CCNc1ccnc(-c2cncc(C(F)(F)F)c2)n1 [Compound 201, [2-(2-Methoxy-phenyl)-ethyl]-[2-(5-trifluoromethyl-pyridin-3-yl)-pyrimidin-4-yl]-amine]
1000 to 10000 | COc1cncc(-c2nccc(NCCc3ccccc3OC)n2)c1 [Compound 202, [2-(2-Methoxy-phenyl)-ethyl]-[2-(5-methoxy-pyridin-3-yl)-pyrimidin-4-yl]-amine]
1000 to 10000 | COc1cncc(-c2nccc(NCCc3ccccc3Cl)n2)c1 [Compound 203, [2-(2-Chloro-phenyl)-ethyl]-[2-(5-methoxy-pyridin-3-yl)-pyrimidin-4-yl]-amine]
< 100 | COc1cncc(-c2nccc(NCc3ccc(F)cc3C(F)(F)F)n2)c1 [Compound 204, (4-Fluoro-2-trifluoromethyl-benzyl)-[2-(5-methoxy-pyridin-3-yl)-pyrimidin-4-yl]-amine]
> 10000 | Cc1cc(F)ncc1-c1nccc(NCc2ccccc2F)n1 [Compound 206, (2-Fluoro-benzyl)-[2-(6-fluoro-4-methyl-pyridin-3-yl)-pyrimidin-4-yl]-amine]
100 to 1000 | Fc1ccc(CNc2ccnc(-c3cccnc3)n2)c(F)c1 [Compound 210, (2,4-Difluoro-benzyl)-(2-pyridin-3-yl-pyrimidin-4-yl)-amine]
> 10000 | Cc1cc(F)ncc1-c1nccc(NCc2ccc(F)cc2F)n1 [Compound 211, (2,4-Difluoro-benzyl)-[2-(6-fluoro-4-methyl-pyridin-3-yl)-pyrimidin-4-yl]-amine]
1000 to 10000 | N#Cc1cncc(-c2nccc(NCc3ncccc3F)n2)c1 [Compound 213, 5-{4-[(3-Fluoro-pyridin-2-ylmethyl)-amino]-pyrimidin-2-yl}-nicotinonitrile]
100 to 1000 | COc1cncc(-c2nccc(NCc3ncccc3F)n2)c1 [Compound 214, (3-Fluoro-pyridin-2-ylmethyl)-[2-(5-methoxy-pyridin-3-yl)-pyrimidin-4-yl]-amine]
> 10000 | N#Cc1cncc(-c2ncc(C(F)(F)F)c(NCc3ccc(F)cc3F)n2)c1 [Compound 215, 5-[4-(2,4-Difluoro-benzylamino)-5-trifluoromethyl-pyrimidin-2-yl]-nicotinonitrile]
1000 to 10000 | COc1cncc(-c2nccc(NCc3cc[nH]n3)n2)c1 [Compound 218, [2-(5-Methoxy-pyridin-3-yl)-pyrimidin-4-yl]-(1H-pyrazol-3-ylmethyl)-amine]
1000 to 10000 | N#Cc1cncc(-c2nccc(NCc3ccccn3)n2)c1 [Compound 220, 5-{4-[(Pyridin-2-ylmethyl)-amino]-pyrimidin-2-yl}-nicotinonitrile]
> 10000 | COc1cncc(-c2nccc(NCc3cc(C)nn3C)n2)c1 [Compound 222, (2,5-Dimethyl-2H-pyrazol-3-ylmethyl)-[2-(5-methoxy-pyridin-3-yl)-pyrimidin-4-yl]-amine]
1000 to 10000 | COc1cncc(-c2nccc(NCc3cccc(C#N)c3)n2)c1 [Compound 225, 3-{[2-(5-Methoxy-pyridin-3-yl)-pyrimidin-4-ylamino]-methyl}-benzonitrile]
100 to 1000 | COc1cncc(-c2nccc(NCc3cc(F)ccc3F)n2)c1 [Compound 226, (2,5-Difluoro-benzyl)-[2-(5-methoxy-pyridin-3-yl)-pyrimidin-4-yl]-amine]
100 to 1000 | COc1cncc(-c2nccc(NCc3ccccc3)n2)c1 [Compound 227, Benzyl-[2-(5-methoxy-pyridin-3-yl)-pyrimidin-4-yl]-amine]
1000 to 10000 | COc1cncc(-c2nccc(NCc3cccnc3)n2)c1 [Compound 229, [2-(5-Methoxy-pyridin-3-yl)-pyrimidin-4-yl]-pyridin-3-ylmethyl-amine]
> 10000 | COc1cncc(-c2nccc(NCc3ccncc3)n2)c1 [Compound 230, [2-(5-Methoxy-pyridin-3-yl)-pyrimidin-4-yl]-pyridin-4-ylmethyl-amine]
< 100 | Fc1ccc(CNc2cccc(-c3cncc(C(F)(F)F)c3)n2)c(F)c1 [Compound 231, (2,4-Difluoro-benzyl)-(5′-trifluoromethyl-[2,3′]bipyridinyl-6-yl)-amine]
100 to 1000 | COc1ncccc1NC(=O)c1cc(NCc2ccc(F)cc2F)nc(-c2cncc(C(F)(F)F)c2)n1 [Compound 233, 6-(2,4-Difluoro-benzylamino)-2-(5-trifluoromethyl-pyridin-3-yl)-pyrimidine-4-carboxylic acid (2-methoxy-pyridin-3-yl)-amide]
1000 to 10000 | CNC(=O)c1ccccc1CNc1ccnc(-c2cncc(C(F)(F)F)c2)n1 [Compound 234, N-Methyl-2-{[2-(5-trifluoromethyl-pyridin-3-yl)-pyrimidin-4-ylamino]-methyl}-benzamide]
